According to PubChem BioAssay (NCI):
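Values below derive from 48-hour exposures of cells grown in 96-well plates, with endpoints linearly interpolated between the two concentrations bracketing the appropriate inhibition level. GI50 marks 50% less growth. Definition used: TGI = concentration required for complete inhibition of growth.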

Assays:
Experiment in all cases: DTP human tumour cell line panel, 48 h
786-0 renal = test system: 786-0 renal
A498 renal = test system: A498 renal
A549 NSCLC = test system: A549 NSCLC
ACHN renal = test system: ACHN renal
BT-549 breast = test system: BT-549 breast
CAKI-1 renal = test system: CAKI-1 renal
CCRF-CEM leukemia = test system: CCRF-CEM leukemia
COLO 205 colon = test system: COLO 205 colon
DU-145 prostate = test system: DU-145 prostate
EKVX NSCLC = test system: EKVX NSCLC
HCC-2998 colon = test system: HCC-2998 colon
HCT-116 colon = test system: HCT-116 colon
HCT-15 colon = test system: HCT-15 colon
HL-60(TB) leukemia = test system: HL-60(TB) leukemia
HOP-62 NSCLC = test system: HOP-62 NSCLC
HOP-92 NSCLC = test system: HOP-92 NSCLC
HS 578T breast = test system: HS 578T breast
HT29 colon = test system: HT29 colon
IGROV1 ovarian = test system: IGROV1 ovarian
K-562 leukemia = test system: K-562 leukemia
KM12 colon = test system: KM12 colon
LOX IMVI melanoma = test system: LOX IMVI melanoma
M14 melanoma = test system: M14 melanoma
MALME-3M melanoma = test system: MALME-3M melanoma
MCF7 breast = test system: MCF7 breast
MDA-MB-231 breast = test system: MDA-MB-231 breast
MDA-MB-435 = test system: MDA-MB-435
MOLT-4 leukemia = test system: MOLT-4 leukemia
NCI-H226 lung = test system: NCI-H226 lung
NCI-H23 lung = test system: NCI-H23 lung
NCI-H460 lung = test system: NCI-H460 lung
NCI-H522 lung = test system: NCI-H522 lung
NCI/ADR-RES ovarian = test system: NCI/ADR-RES ovarian
OVCAR-3 ovarian = test system: OVCAR-3 ovarian
OVCAR-4 ovarian = test system: OVCAR-4 ovarian
OVCAR-5 ovarian = test system: OVCAR-5 ovarian
OVCAR-8 ovarian = test system: OVCAR-8 ovarian
PC-3 prostate = test system: PC-3 prostate
RPMI-8226 leukemia = test system: RPMI-8226 leukemia
RXF 393 renal = test system: RXF 393 renal
SF-268 CNS = test system: SF-268 CNS
SF-295 CNS = test system: SF-295 CNS
SF-539 CNS = test system: SF-539 CNS
SK-MEL-2 melanoma = test system: SK-MEL-2 melanoma
SK-MEL-28 melanoma = test system: SK-MEL-28 melanoma
SK-MEL-5 melanoma = test system: SK-MEL-5 melanoma
SK-OV-3 ovarian = test system: SK-OV-3 ovarian
SN12C renal = test system: SN12C renal
SNB-19 CNS = test system: SNB-19 CNS
SNB-75 CNS = test system: SNB-75 CNS
SW-620 colon = test system: SW-620 colon
T-47D breast = test system: T-47D breast
TK-10 renal = test system: TK-10 renal
U251 CNS = test system: U251 CNS
UACC-257 melanoma = test system: UACC-257 melanoma
UACC-62 melanoma = test system: UACC-62 melanoma
UO-31 renal = test system: UO-31 renal

`COC(=O)c1ccc([C@H]2c3[nH]c4ccccc4c3C[C@H](C(=O)OC)N2C(=O)CCl)cc1` was tested, and the GI50 (786-0 renal) was < 0.01 µM, the TGI (786-0 renal) was < 0.0169 µM and the GI50 (A498 renal) was 0.447 µM. For the same molecule, the TGI (A498 renal) was 0.888 µM, the GI50 (A549 NSCLC) was 1.63 µM and the TGI (A549 NSCLC) was 10.5 µM. The GI50 (ACHN renal) was 0.234 µM, the TGI (ACHN renal) was 2.17 µM and the GI50 (BT-549 breast) was 1.23 µM. For the same molecule, the TGI (BT-549 breast) was 2.57 µM, the GI50 (CAKI-1 renal) was 0.262 µM and the TGI (CAKI-1 renal) was 2.51 µM. The GI50 (CCRF-CEM leukemia) was 0.0223 µM, the TGI (CCRF-CEM leukemia) was 0.0839 µM and the GI50 (COLO 205 colon) was 2.33 µM. For the same molecule, the TGI (COLO 205 colon) was 6.14 µM, the GI50 (DU-145 prostate) was 2.23 µM and the TGI (DU-145 prostate) was 12.3 µM. It also gave a GI50 (EKVX NSCLC) of 0.82 µM, a TGI (EKVX NSCLC) of 3.4 µM and a GI50 (HCC-2998 colon) of 1.75 µM. For the same molecule, the TGI (HCC-2998 colon) was 3.38 µM, the GI50 (HCT-116 colon) was 1.47 µM and the TGI (HCT-116 colon) was 2.98 µM. It also gave a GI50 (HCT-15 colon) of 1.04 µM, a TGI (HCT-15 colon) of 2.65 µM and a GI50 (HL-60(TB) leukemia) of 0.113 µM. For the same molecule, the TGI (HL-60(TB) leukemia) was 0.301 µM, the GI50 (HOP-62 NSCLC) was 0.997 µM and the TGI (HOP-62 NSCLC) was 4.44 µM. The GI50 (HOP-92 NSCLC) was 0.023 µM, the TGI (HOP-92 NSCLC) was 0.063 µM and the GI50 (HS 578T breast) was 1.48 µM. For the same molecule, the TGI (HS 578T breast) was 5.98 µM, the GI50 (HT29 colon) was 0.298 µM and the TGI (HT29 colon) was 1.11 µM. It also gave a GI50 (IGROV1 ovarian) of 0.0858 µM, a TGI (IGROV1 ovarian) of 0.277 µM and a GI50 (K-562 leukemia) of 1.97 µM. The TGI (K-562 leukemia) was > 28 µM, the GI50 (KM12 colon) was 1.03 µM and the TGI (KM12 colon) was 4.39 µM. For the same molecule, the GI50 (LOX IMVI melanoma) was < 0.01 µM, the TGI (LOX IMVI melanoma) was < 0.01 µM and the GI50 (M14 melanoma) was 1.94 µM. It also gave a TGI (M14 melanoma) of 5.11 µM, a GI50 (MALME-3M melanoma) of 0.157 µM and a TGI (MALME-3M melanoma) of 0.438 µM. For the same molecule, the GI50 (MCF7 breast) was 1.75 µM, the TGI (MCF7 breast) was 4.95 µM and the GI50 (MDA-MB-231 breast) was 0.109 µM. The TGI (MDA-MB-231 breast) was 0.551 µM, the GI50 (MDA-MB-435) was 2.74 µM and the TGI (MDA-MB-435) was 11.1 µM. The GI50 (MOLT-4 leukemia) was 0.268 µM, the TGI (MOLT-4 leukemia) was 0.857 µM and the GI50 (NCI-H226 lung) was 2.21 µM. It also gave a TGI (NCI-H226 lung) of 5.94 µM, a GI50 (NCI-H23 lung) of 0.0549 µM and a TGI (NCI-H23 lung) of 0.375 µM. It also gave a GI50 (NCI-H460 lung) of 1.63 µM, a TGI (NCI-H460 lung) of 3.59 µM and a GI50 (NCI-H522 lung) of 0.0197 µM. It also gave a TGI (NCI-H522 lung) of 0.0435 µM, a GI50 (NCI/ADR-RES ovarian) of 0.0744 µM and a TGI (NCI/ADR-RES ovarian) of 0.333 µM. It also gave a GI50 (OVCAR-3 ovarian) of 0.672 µM, a TGI (OVCAR-3 ovarian) of 2.12 µM and a GI50 (OVCAR-4 ovarian) of 2.5 µM. It also gave a TGI (OVCAR-4 ovarian) of 9.87 µM, a GI50 (OVCAR-5 ovarian) of 1.44 µM and a TGI (OVCAR-5 ovarian) of 3.65 µM. For the same molecule, the GI50 (OVCAR-8 ovarian) was 1.36 µM, the TGI (OVCAR-8 ovarian) was 7.93 µM and the GI50 (PC-3 prostate) was 0.845 µM. The TGI (PC-3 prostate) was 4.3 µM, the GI50 (RPMI-8226 leukemia) was 0.0405 µM and the TGI (RPMI-8226 leukemia) was 0.386 µM. The GI50 (RXF 393 renal) was 0.074 µM, the TGI (RXF 393 renal) was 0.723 µM and the GI50 (SF-268 CNS) was 1.9 µM. The TGI (SF-268 CNS) was 4.61 µM, the GI50 (SF-295 CNS) was 0.0804 µM and the TGI (SF-295 CNS) was 0.216 µM. The GI50 (SF-539 CNS) was 0.0899 µM, the TGI (SF-539 CNS) was 0.226 µM and the GI50 (SK-MEL-2 melanoma) was 2.03 µM. For the same molecule, the TGI (SK-MEL-2 melanoma) was 4.89 µM, the GI50 (SK-MEL-28 melanoma) was 2.35 µM and the TGI (SK-MEL-28 melanoma) was 6.92 µM. It also gave a GI50 (SK-MEL-5 melanoma) of 2.3 µM, a TGI (SK-MEL-5 melanoma) of 5.93 µM and a GI50 (SK-OV-3 ovarian) of 1.72 µM. It also gave a TGI (SK-OV-3 ovarian) of 3.59 µM, a GI50 (SN12C renal) of 1.26 µM and a TGI (SN12C renal) of 2.89 µM. It also gave a GI50 (SNB-19 CNS) of 4.39 µM, a TGI (SNB-19 CNS) of 16 µM and a GI50 (SNB-75 CNS) of 0.334 µM. For the same molecule, the TGI (SNB-75 CNS) was 0.843 µM, the GI50 (SW-620 colon) was 1.49 µM and the TGI (SW-620 colon) was 3.34 µM. For the same molecule, the GI50 (T-47D breast) was 2.23 µM, the TGI (T-47D breast) was 13.3 µM and the GI50 (TK-10 renal) was 2.32 µM. For the same molecule, the TGI (TK-10 renal) was 7.66 µM, the GI50 (U251 CNS) was 0.641 µM and the TGI (U251 CNS) was 1.99 µM. It also gave a GI50 (UACC-257 melanoma) of 3.87 µM, a TGI (UACC-257 melanoma) of 14.5 µM and a GI50 (UACC-62 melanoma) of 0.752 µM. For the same molecule, the TGI (UACC-62 melanoma) was 2.21 µM, the GI50 (UO-31 renal) was 0.0283 µM and the TGI (UO-31 renal) was 0.108 µM.
